These results are taken from patent US20210147866A1, “PLANTS HAVING INCREASED TOLERANCE TO HERBICIDES” (BASF SE, priority 2017, published 2021).

Assay [1] has as its system Arabidopsis thaliana MC24. Put plainly: Greenhouse dose response, post-emergence spray of untransformed motherline. It is filed as in vivo. To be noted: 9 leaf stage, rates from 0.8 to 100 g/ha, 14 days after treatment (FIG. 2).
The test system of assay [2] is Transgenic MC24 plants expressing the short Scenedesmus obliquus HPPD (SEQ ID NO:50). As to the kind of experiment: Greenhouse post-emergence herbicide tolerance test, transgenic lines expressing short Scenedesmus obliquus HPPD (F363I, amino acids 442-477 deleted). The class given is in vivo, Arabidopsis thaliana. The text has this:
(§1) Additionally, T1 and T2 transgenic Arabidopsis plants can be tested for improved tolerance to HPPD-inhibiting benzamide herbicides in a greenhouse studies. Herbicide injury scoring is done 2-3 weeks after treatment and is rated on a scale of 0 to 100%, 0% being no injury and 100% being complete death.
(§2) The seedlings are then transfered to pots with a diameter of 10 cm and grown in soil to the nine leaf stage.
(§3) Preselected transgenic Arabidopsis plants expressing heterologous Scenedesmus obliquus HPPD mutant enzymes as defined in Seq ID No. 48 and Seq ID No. 50 are tested for tolerance against HPPD-inhibiting 4-bromo-3-(dicyclopropylcarbamoylamino)-6-fluoro-2-methyl-N(1-methyltetrazol-5-yl) benzamide herbicide in greenhouse experiments.
(§4) Transgenic lines are tested expressing heterologous Scenedesmus obliquus HPPD coding sequences under control of the constitutive parsley ubiquitin promoter and the nos terminator. One construct contains the full length Scenedesmus obliquus HPPD enzyme (Seq ID No. 47) while in a second construct the naturally occurring C-terminal insertion of 36 amino acids at position 442-477 is deleted (Seq ID No. 49). Both coding sequences carry the mutation F363I.
(§5) Broadleaf plants are more sensitive to HPPD inhibitors when applied post-emergence as compared to a pre-emergence testing. Therefore, transgenic lines are tested in a post emergence setting at about the nine leaf stage.
(§6) For the herbicide treatment of transgenic lines 4-bromo-3-(dicyclopropylcarbamoylamino)-6-fluoro-2-methyl-N-(1-methyltetrazol-5-yl) benzamide is applied at use rates of 25, 50 and 100 g/ha (see FIG. 3)
(§7) Treated plants are assessed 14 days after treatment (DAT) in the post-emergence setting.

The test system of assay [3] is Transgenic MC24 plants expressing the Scenedesmus obliquus HPPD full length coding sequence (SEQ ID NO: 47). As to the kind of experiment: Greenhouse post-emergence herbicide tolerance test, transgenic lines expressing full length Scenedesmus obliquus HPPD (F363I). The class given is in vivo, Arabidopsis thaliana.
From the text: as §1, §2, §3, §4, §5, §6, §7

Regarding `Cc1c(NC(=O)N(C2CC2)C2CC2)c(Br)cc(F)c1C(=O)Nc1nnnn1C` [4-bromo-3-(dicyclopropylcarbamoylamino)-6-fluoro-2-methyl-N-(1-methyltetrazol-5-yl) benzamide], the “sensitivity of untransformed MC24 plants towards the herbicide (plant death)” value in assay [1] is “die even at the lowest rate”. Also, the “herbicide tolerance of transgenic lines” value in assay [2] (short S. obliquus HPPD F363I, 25 to 100 g/ha, post-emergence, 9 leaf stage, 14 DAT (FIG. 3)) is “show herbicide tolerance”; in assay [3] (full length S. obliquus HPPD F363I, 25-100 g/ha, post-emergence, 9 leaf stage, 14 DAT (FIG. 4)) it was “show herbicide tolerance”. For the same compound, in assay [2] (short S. obliquus HPPD F363I, 50 to 100 g/ha, post-emergence, 14 DAT (FIG. 3)), the “herbicidal injury of transgenic lines” value is on record as “Little herbicidal injury”. In addition, the “injury of plants with S. obliquus HPPD gene carrying F363I (overall assessment)” value was “very little to no injury” in assay [2] (short construct, shown rates 25, 50 and 100 g/ha, 14 days after treatment); “very little to no injury” in assay [3] (full length construct, shown rates 25, 50 and 100 g/ha, 14 days after treatment). In assay [3] (25-100 g/ha, 14 days after treatment), the “herbicide tolerance of full length sequence compared to HPPD not containing the C-terminal loop” value was “slightly better herbicide tolerance”.
